In publication PMC7316778 (Nature Communications, 2020):
Several values for one entry are separate records, joined by “and”; a condition that tells them apart may be missing. Equal values may be shown once. Read-outs that look alike come from different tables or passages of the source.

Assays:
Test in all cases: SelectScreen kinase assay
PLK4 = molecular target: T1, PLK4 (Homo sapiens, UniProt O00444)
T1 sequence (O00444 1-970): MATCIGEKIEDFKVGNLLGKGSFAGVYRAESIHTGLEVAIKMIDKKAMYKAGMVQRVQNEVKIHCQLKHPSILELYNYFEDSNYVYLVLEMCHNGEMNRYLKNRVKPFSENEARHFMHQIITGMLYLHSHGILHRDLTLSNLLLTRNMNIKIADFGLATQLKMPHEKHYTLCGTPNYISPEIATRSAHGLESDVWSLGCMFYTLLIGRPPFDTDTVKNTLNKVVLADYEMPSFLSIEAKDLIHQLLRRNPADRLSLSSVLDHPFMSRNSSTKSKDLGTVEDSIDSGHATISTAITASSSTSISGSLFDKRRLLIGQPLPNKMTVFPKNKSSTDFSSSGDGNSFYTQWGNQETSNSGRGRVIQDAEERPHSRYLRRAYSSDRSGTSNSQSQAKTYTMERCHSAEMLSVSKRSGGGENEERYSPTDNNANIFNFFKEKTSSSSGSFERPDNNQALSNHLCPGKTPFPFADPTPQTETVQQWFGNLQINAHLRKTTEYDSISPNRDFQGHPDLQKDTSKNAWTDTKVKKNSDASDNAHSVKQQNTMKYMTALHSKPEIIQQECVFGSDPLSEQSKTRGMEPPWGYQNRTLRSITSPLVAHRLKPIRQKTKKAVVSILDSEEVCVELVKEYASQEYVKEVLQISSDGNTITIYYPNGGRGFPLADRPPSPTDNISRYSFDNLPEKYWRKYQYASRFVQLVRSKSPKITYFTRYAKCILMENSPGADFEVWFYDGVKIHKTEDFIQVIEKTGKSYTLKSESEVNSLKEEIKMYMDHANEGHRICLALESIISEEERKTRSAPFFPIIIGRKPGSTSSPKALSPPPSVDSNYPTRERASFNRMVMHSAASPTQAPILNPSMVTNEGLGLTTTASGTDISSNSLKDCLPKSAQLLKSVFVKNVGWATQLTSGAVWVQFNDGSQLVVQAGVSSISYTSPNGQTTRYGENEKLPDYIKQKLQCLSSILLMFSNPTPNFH
Procedure: (§1) Selectivity profiling assays were performed by the Invitrogen SelectScreen™ Services. […] The concentration of ATP was selected to be equal to the KM, unless indicated otherwise.

LIMK1 = LIMK1 (Homo sapiens, UniProt P53667)
Procedure: as §1

MELK = MELK (Homo sapiens, UniProt Q14680)
Procedure: as §1

PRKCN (PKD3) = PRKCN (PKD3) (Homo sapiens, UniProt O94806)
Procedure: as §1

JAK3 = molecular target: T2, JAK3 (Homo sapiens, UniProt P52333)
T2 sequence (P52333 1-1124): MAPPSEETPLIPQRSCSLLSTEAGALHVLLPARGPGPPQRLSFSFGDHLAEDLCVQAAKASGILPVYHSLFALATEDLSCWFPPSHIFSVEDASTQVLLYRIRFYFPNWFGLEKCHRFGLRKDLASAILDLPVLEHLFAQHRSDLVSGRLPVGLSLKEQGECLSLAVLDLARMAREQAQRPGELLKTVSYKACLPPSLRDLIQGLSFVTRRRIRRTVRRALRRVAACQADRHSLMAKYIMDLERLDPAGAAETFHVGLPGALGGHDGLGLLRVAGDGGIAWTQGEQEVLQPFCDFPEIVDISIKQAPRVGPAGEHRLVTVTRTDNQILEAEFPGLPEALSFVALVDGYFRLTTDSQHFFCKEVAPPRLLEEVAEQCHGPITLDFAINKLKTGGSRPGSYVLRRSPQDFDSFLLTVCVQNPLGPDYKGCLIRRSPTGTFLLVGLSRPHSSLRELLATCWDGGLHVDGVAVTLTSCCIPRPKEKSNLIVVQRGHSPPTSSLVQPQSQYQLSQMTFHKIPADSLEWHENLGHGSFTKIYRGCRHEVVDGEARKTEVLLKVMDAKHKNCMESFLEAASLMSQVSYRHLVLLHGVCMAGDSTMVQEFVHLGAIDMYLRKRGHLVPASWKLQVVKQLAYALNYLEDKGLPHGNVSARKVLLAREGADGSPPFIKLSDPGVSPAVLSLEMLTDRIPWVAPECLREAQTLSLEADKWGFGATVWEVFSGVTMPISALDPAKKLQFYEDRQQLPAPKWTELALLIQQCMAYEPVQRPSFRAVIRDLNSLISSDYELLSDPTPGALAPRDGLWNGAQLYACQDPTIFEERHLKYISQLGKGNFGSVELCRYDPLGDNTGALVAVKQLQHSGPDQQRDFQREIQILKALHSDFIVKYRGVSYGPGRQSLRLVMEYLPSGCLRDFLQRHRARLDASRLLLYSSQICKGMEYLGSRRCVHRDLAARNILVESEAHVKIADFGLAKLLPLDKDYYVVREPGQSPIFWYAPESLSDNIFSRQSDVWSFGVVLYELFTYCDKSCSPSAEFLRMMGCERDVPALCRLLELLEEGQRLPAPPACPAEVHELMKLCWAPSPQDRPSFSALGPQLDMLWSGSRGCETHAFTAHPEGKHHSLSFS
Procedure: as §1

PIM1 = PIM1 (Homo sapiens, UniProt P11309); settings: for Inhibition at 1 µM (%): PIM1, ZLYTE, ATP Km app
Procedure: as §1

MAP3K19 (YSK4) = MAP3K19 (YSK4) (Homo sapiens, UniProt Q56UN5)
Procedure: as §1

CDC42 BPA (MRCKA) = CDC42 BPA (MRCKA) (Homo sapiens, UniProt Q5VT25)
Procedure: as §1

CHUK (IKK alpha) = CHUK (IKK alpha) (Homo sapiens, UniProt O15111)
Procedure: as §1

ROCK1 = ROCK1 (Homo sapiens, UniProt Q13464)
Procedure: as §1

[1] = 1 h, 1 μM WEL028, 1 h preincubation

Chain of CHUK (IKK alpha) (O15111 whole entry): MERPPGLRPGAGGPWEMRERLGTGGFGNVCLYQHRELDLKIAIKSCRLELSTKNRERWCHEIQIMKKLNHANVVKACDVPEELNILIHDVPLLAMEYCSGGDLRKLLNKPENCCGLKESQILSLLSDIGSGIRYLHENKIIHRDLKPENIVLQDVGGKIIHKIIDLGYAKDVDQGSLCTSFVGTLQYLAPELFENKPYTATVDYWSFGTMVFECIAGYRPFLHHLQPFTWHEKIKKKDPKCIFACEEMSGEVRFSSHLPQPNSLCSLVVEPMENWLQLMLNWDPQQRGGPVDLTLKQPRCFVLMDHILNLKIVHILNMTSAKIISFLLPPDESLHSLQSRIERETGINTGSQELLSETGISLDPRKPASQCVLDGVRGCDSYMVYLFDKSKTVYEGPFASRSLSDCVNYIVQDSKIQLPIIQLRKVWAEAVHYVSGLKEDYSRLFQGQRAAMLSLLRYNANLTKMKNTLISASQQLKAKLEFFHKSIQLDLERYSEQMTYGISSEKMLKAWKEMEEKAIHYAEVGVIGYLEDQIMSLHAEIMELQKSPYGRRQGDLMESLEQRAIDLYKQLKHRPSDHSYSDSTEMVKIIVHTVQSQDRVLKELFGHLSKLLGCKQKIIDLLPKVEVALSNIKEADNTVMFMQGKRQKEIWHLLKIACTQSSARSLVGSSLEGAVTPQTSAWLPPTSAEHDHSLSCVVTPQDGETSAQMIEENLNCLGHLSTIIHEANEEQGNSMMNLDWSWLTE
Chain of PIM1 (P11309 whole entry): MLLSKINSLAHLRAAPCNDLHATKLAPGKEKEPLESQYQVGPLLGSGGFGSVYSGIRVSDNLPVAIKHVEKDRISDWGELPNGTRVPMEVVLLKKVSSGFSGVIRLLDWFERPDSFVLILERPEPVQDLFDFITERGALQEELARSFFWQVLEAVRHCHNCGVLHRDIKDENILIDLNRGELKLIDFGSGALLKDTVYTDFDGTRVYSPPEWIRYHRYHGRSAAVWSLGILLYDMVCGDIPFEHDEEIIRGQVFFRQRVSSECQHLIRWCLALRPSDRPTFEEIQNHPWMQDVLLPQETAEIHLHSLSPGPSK
Chain of LIMK1 (P53667 whole entry): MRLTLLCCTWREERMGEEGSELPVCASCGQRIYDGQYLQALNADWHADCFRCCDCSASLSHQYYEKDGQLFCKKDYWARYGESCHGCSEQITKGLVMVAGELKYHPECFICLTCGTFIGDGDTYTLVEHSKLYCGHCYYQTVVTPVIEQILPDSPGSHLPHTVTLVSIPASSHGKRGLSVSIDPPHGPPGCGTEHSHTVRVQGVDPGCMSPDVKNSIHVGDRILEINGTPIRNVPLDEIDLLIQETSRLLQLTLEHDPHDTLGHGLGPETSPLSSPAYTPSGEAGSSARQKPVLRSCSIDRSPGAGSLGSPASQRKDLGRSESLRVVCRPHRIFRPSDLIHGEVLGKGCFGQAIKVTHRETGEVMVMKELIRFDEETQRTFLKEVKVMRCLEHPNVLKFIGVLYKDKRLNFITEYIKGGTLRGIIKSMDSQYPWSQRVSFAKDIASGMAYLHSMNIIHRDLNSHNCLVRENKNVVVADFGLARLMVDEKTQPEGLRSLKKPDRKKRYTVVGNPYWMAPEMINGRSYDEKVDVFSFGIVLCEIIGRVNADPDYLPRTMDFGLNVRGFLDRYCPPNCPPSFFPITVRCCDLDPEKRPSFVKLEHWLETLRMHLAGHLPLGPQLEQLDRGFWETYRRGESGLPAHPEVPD
Chain of MAP3K19 (YSK4) (Q56UN5 whole entry): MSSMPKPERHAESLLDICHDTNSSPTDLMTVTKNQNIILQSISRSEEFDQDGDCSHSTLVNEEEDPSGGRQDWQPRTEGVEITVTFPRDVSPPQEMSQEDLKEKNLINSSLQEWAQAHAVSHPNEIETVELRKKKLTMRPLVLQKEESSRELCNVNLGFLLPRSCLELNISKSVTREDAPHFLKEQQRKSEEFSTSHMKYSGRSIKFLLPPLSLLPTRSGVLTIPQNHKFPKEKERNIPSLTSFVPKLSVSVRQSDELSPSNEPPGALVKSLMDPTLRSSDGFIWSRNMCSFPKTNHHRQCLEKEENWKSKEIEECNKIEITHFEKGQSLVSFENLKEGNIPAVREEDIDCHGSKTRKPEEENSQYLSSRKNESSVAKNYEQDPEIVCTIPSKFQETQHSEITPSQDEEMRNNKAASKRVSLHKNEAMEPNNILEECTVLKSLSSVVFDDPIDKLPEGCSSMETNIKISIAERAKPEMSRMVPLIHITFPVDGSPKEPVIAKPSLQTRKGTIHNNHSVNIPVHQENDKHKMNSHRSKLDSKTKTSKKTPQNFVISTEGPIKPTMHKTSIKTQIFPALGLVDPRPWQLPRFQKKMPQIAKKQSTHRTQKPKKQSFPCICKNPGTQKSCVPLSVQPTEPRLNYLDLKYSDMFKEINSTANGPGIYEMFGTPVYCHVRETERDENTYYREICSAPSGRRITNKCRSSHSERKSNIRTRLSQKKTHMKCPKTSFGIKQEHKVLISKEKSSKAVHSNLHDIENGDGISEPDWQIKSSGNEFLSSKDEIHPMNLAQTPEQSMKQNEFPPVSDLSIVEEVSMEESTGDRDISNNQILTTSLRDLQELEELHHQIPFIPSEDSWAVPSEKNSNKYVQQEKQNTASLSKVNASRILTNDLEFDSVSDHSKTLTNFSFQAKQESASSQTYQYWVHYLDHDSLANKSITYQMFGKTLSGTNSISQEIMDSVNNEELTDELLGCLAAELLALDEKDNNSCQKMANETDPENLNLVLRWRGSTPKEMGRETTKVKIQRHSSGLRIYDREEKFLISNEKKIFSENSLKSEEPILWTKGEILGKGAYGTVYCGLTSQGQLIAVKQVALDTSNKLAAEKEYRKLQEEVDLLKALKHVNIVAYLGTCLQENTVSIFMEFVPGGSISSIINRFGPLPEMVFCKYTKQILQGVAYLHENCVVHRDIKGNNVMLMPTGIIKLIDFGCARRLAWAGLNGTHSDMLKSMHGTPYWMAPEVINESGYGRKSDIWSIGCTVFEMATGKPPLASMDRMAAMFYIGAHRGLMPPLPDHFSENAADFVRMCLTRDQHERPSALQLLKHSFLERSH
Chain of ROCK1 (Q13464 whole entry): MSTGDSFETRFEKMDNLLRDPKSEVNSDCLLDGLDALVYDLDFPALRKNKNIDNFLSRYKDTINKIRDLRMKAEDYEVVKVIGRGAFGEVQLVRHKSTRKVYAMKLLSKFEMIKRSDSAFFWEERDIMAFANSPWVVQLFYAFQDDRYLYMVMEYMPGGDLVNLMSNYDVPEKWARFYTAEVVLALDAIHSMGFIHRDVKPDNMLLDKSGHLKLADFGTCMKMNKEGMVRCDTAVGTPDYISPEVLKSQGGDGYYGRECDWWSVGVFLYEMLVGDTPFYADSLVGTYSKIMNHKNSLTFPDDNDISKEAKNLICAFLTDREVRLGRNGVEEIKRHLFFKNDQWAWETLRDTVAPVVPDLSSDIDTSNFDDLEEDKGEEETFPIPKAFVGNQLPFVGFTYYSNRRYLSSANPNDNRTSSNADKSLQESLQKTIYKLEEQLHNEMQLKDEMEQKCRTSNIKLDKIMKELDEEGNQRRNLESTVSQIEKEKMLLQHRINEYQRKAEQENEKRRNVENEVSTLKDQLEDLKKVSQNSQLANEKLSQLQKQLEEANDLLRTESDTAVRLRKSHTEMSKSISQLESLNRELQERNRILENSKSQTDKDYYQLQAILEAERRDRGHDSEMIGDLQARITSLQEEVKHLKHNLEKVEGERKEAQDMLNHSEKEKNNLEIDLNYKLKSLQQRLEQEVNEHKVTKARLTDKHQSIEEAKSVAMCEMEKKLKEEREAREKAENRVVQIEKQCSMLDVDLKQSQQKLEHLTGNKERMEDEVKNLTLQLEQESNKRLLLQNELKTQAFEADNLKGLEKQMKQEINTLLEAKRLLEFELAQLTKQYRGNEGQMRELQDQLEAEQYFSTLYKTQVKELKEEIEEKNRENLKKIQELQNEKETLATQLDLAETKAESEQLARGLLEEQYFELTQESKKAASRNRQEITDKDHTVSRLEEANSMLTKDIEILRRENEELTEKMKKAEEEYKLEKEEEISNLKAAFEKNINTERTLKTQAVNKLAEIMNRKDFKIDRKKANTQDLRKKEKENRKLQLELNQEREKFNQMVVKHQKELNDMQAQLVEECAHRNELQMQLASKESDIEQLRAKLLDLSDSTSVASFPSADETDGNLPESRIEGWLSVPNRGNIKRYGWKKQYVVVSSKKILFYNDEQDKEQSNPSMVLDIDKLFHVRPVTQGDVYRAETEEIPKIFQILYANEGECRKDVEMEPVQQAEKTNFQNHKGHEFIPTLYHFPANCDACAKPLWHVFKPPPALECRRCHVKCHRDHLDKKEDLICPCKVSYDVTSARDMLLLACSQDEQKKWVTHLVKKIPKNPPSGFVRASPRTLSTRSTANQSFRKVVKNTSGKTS
Chain of MELK (Q14680 whole entry): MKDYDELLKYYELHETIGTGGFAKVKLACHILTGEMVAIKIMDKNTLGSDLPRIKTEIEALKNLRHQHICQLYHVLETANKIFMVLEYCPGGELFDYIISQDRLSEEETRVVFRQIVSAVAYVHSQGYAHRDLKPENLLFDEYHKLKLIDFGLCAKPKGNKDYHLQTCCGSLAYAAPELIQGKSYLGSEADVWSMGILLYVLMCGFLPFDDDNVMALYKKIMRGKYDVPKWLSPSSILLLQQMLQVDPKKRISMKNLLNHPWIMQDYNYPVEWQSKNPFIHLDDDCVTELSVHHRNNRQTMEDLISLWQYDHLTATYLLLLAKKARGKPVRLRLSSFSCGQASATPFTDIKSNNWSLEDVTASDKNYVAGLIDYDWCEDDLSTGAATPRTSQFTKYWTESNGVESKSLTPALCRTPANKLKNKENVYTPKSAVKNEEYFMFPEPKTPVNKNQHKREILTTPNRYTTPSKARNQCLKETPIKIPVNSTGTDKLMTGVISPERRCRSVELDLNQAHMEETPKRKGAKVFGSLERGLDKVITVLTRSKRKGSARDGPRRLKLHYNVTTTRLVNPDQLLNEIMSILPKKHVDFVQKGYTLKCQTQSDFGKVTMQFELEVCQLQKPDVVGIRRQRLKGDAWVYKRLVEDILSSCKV

## C#CCOc1ccc(Nc2ncc(Cl)c(Nc3ccccc3NC(=O)C=C)n2)c(OC)c1 [Compound 6]
PLK4
  IC50: 25.1 nM
PLK4; [1]
  inhibition at 1 µM: 98%
PLK4; IC50 on that kinase divided by IC50 on FES^S700C
  Apparent fold selectivity: 6 fold
PLK4; read-out: Inhibition at 1 µM (%), PLK4, 1 µM, LanthaScreen Binding
  inhibition at 1 µM: 99%
LIMK1; [1]
  inhibition at 1 µM: 14%
LIMK1; LIMK1, 1 µM, LanthaScreen Binding, listed as WEL028, 1 µM
  Inhibition at 1 µM (%): 12%
LIMK1; read-out: Inhibition at 1 µM (%), LIMK1, 1 µM, LanthaScreen Binding
  inhibition at 1 µM: 16%
MELK; [1]
  inhibition at 1 µM: -2%
MELK; MELK, 1 µM, ZLYTE, ATP Km app, listed as WEL028, 1 µM
  Inhibition at 1 µM (%): -3%
PRKCN (PKD3); [1]
  inhibition at 1 µM: 31%
PRKCN (PKD3); read-out: Inhibition at 1 µM (%), PRKCN (PKD3), 1 µM, ZLYTE, ATP Km app
  inhibition at 1 µM: 32%
JAK3; [1]
  inhibition at 1 µM: 14%
JAK3; JAK3, 1 µM, ZLYTE, ATP Km app, listed as WEL028, 1 µM
  Inhibition at 1 µM (%): 10%
JAK3; read-out: Inhibition at 1 µM (%), JAK3, 1 µM, ZLYTE, ATP Km app
  inhibition at 1 µM: 18%
PIM1; [1]
  inhibition at 1 µM: -8%
PIM1
  Inhibition at 1 µM (%): -11%
PIM1; listed as WEL028, 1 µM
  Inhibition at 1 µM (%): -5%
MAP3K19 (YSK4); [1]
  inhibition at 1 µM: 0%
MAP3K19 (YSK4); MAP3K19 (YSK4), 1 µM, ZLYTE, ATP Km app, listed as WEL028, 1 µM
  Inhibition at 1 µM (%): -1% and 1%
CDC42 BPA (MRCKA); [1]
  inhibition at 1 µM: -7%
CDC42 BPA (MRCKA); CDC42 BPA (MRCKA), 1 µM, ZLYTE, ATP Km app
  Inhibition at 1 µM (%): -20%
CHUK (IKK alpha); [1]
  inhibition at 1 µM: 7%
CHUK (IKK alpha); CHUK (IKK alpha), 1 µM, Adapta, ATP Km app, listed as WEL028, 1 µM
  Inhibition at 1 µM (%): 12% and 3%
ROCK1; 1 µM, ZLYTE, ATP Km app, listed as WEL028, 1 µM
  Inhibition at 1 µM (%): -6% and 0%
ROCK1; [1]
  inhibition at 1 µM: -3%
